ChEMBL document CHEMBL1127983, “The synthesis and evaluation of peptidyl aspartyl aldehydes as inhibitors of ice” (Bioorg Med Chem Lett, 1994)
Square brackets hold non-standard residues; d marks the D form. Peptide text beside a SMILES is read from it. βAla = NCCC(=O)O

Target: T1, Caspase-1 (Homo sapiens, UniProt P29466)
T1 sequence (P29466 whole entry): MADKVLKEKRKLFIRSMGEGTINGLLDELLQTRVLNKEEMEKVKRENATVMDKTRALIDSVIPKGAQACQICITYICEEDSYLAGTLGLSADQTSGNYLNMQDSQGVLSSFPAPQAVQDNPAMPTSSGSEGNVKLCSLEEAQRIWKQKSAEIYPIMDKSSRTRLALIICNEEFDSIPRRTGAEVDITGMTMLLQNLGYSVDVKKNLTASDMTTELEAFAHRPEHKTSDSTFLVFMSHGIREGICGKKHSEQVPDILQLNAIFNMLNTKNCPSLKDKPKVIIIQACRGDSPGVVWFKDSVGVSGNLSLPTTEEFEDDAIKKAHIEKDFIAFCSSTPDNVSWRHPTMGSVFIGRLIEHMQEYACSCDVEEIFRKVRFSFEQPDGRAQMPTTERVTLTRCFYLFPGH
Test: Binding affinity towards IL-1 beta converting enzyme (ICE)

| SMILES | Ki [nM] |
| --- | --- |
| CC(=O)N[C@@H](Cc1ccc(O)cc1)C(=O)N[C@H](C(=O)N[C@@H](C)C(=O)N[C@H](C=O)CC(=O)O)C(C)C | 6 |
| CC(=O)N[C@@H](Cc1cc(I)c(O)c(I)c1)C(=O)N[C@H](C(=O)N[C@@H](C)C(=O)N[C@H](C=O)CC(=O)O)C(C)C | 7.5 |
| CC(C)[C@H](NC(=O)CC(Cl)Cl)C(=O)N[C@@H](C)C(=O)N[C@H](C=O)CC(=O)O | 28 |
| CC(=O)N[C@@H](Cc1ccc(O)cc1)C(=O)N[C@H](C(=O)N[C@@H](C)C(=O)N(C)[C@H](C=O)CC(=O)O)C(C)C | > 20000 |
| CC(=O)N[C@@H](Cc1ccc(O)cc1)C(=O)N(C)[C@H](C(=O)N[C@@H](C)C(=O)N[C@H](C=O)CC(=O)O)C(C)C | 50000 |
| CC(=O)N(C)[C@@H](Cc1ccc(O)cc1)C(=O)N[C@H](C(=O)N[C@@H](C)C(=O)N[C@H](C=O)CC(=O)O)C(C)C | 120 |
| CC(=O)N[C@@H](Cc1ccc(O)cc1)C(=O)N[C@H](C(=O)N(C)[C@@H](C)C(=O)N[C@H](C=O)CC(=O)O)C(C)C | 59 |
| CC(=O)N[C@@H](Cc1ccc(O)cc1)C(=O)N[C@H](C(=O)N[C@@H](C)C(=O)N[C@@H]1COC(=O)C1)C(C)C | > 20000 |
| CC(=O)N[C@@H](Cc1ccc(O)cc1)C(=O)N[C@H](C(=O)N[C@@H](C)C(=O)N[C@H](/C=N\NC(N)=O)CC(=O)O)C(C)C | 500 |
| CC(=O)N[C@@H](Cc1ccc(O)cc1)C(=O)N[C@H](C(=O)N[C@@H](C)C(=O)N[C@@H]1CNC(=O)C1)C(C)C | > 20000 |
| CC(=O)N[C@@H](C)C(=O)N[C@H](C=O)CC(=O)O (Ac-Ala-Asp-aldehyde) | > 20000 |
| CC(=O)N[C@@H](Cc1ccccc1)C(=O)N[C@H](C(=O)N[C@@H](C)C(=O)N[C@H](C=O)CC(=O)O)C(C)C (Ac-FVAD-aldehyde) | 42 |
| CC(=O)N[C@@H](Cc1ccc(O)cc1)C(=O)N[C@@H](C)C(=O)N[C@H](C=O)CC(=O)O (Ac-Tyr-Ala-Asp-aldehyde) | 2100 |
| CC(=O)N[C@@H](Cc1ccc(O)cc1)C(=O)N[C@H](C=O)CC(=O)O (Ac-Tyr-Asp-aldehyde) | > 20000 |
| CC(=O)N[C@@H](Cc1ccc(O)cc1)C(=O)N[C@H](C(=O)N[C@H](C=O)CC(=O)O)C(C)C (Ac-Tyr-Val-Asp-aldehyde) | 2400 |
| CC(=O)N[C@H](C(=O)N[C@@H](C)C(=O)N[C@H](C=O)CC(=O)O)C(C)C (Ac-Val-Ala-Asp-aldehyde) | 1700 |
| CC(=O)N[C@@H](Cc1ccc(O)cc1)C(=O)N[C@H](C(=O)N[C@@H](C)C(=O)NCCC(=O)O)C(C)C (Ac-YVA[βAla]-OH) | > 20000 |
